Experimental data published in patent US20250052749A1, “SYSTEMS AND METHODS OF SELECTING COMPOUNDS THAT INDUCE CONFORMATIONAL CHANGES IN MUTANT CEREBLON” (BRISTOL-MYERS SQUIBB COMPANY, priority 2021, published 2025).
“Also recorded” adds a separate entry of the source.

Legend:
[1] = target: T1, P98A Cereblon-DDB1 (Homo sapiens, UniProt Q96SW2, P98A); test: cryo-EM of P98A mutant Cereblon saturated with drug along with Ikaros; settings: for conformation of P98A Cereblon in presence of drug (open/closed) / recruitment of Ikaros Zf 2-3 to P98A mutant Cereblon: result in words; for recruitment of Ikaros Zf 2-3 to P98A mutant Cereblon: FIG. 9
T1 construct: human cereblon (amino acids 5-442); ZZ-domain-6×His-thrombin site (cleaved yes); made in house; host or cells: SF9 insect cells (CRBN-DDB1, by 'as before'); E. coli BL21 (DE3) Star (Ikaros)
Description: Frozen 20 mg/mL cereblon-DDB1 complexes were thawed and diluted to 5 mg/mL with buffer containing 20 mM HEPES pH 7, 150 mM NaCl, 3 mM TCEP. Immediately prior to plunge-freezing in liquid ethane, samples are diluted 10-fold in the same buffer supplemented with 0.011% Lauryl Maltose-Neopentyl Glycol (LMNG) to limit complex dissociation. Quantifoil 300 mesh R1.2/1.3 UltrAuFoil Holey Gold Films were plasma cleaned for 7 seconds using a Solarus plasma cleaner (Gatan, Inc.) with a 75% nitrogen, 25% oxygen atmosphere at 15 W. Immediately prior to sample application, grids are further pre-treated with 4 μL solution containing 10 μM cereblon binding-deficient mutant Ikaros residues 140-196 Q146A G151N and blotted from behind with torn Whatman 1 filter paper. 4 μL dilute sample is applied, excess sample was blotted away for 4 s and vitrified by manual plunge freezing into a liquid ethane pool cooled by liquid nitrogen using a manual plunger in a 4° C. cold room >95% humidity. Samples containing IMiDs are prepared the same way, with 10× molar equivalent of drug yielding a buffer concentration 20 mM HEPES pH 7, 150 mM NaCl, 3 mM TCEP, <1% DMSO mixed 2 minutes prior to dilution and application to the grid. Similarly, Ikaros samples are prepared by incubation of 2-fold molar excess Ikaros 2 minutes prior to dilution and application to the grid.
Cryo-EM data were collected on a Thermo-Fisher Talos Arctica transmission electron microscope operating at […] using parallel illumination conditions. Micrographs were acquired using a Gatan K2 Summit direct electron detector, operated in electron counting mode applying a total electron exposure of […]. The Leginon data collection software was used to collect 2912 micrographs at 36,000× nominal magnification (1.15 Å/pixel at the specimen level) with a nominal defocus set to −1.5 μm. Variation from the nominally set defocus due to a ˜5% tilt in the stage gave rise to a defocus range (this tilt was not intentional and required service to correct). Stage movement was used to target the center of sixteen 1.2 μm holes for focusing, and an image shift was used to acquire high magnification images in the center of each of the sixteen targeted holes.

[2] = target: Cereblon (Homo sapiens, UniProt Q96SW2); test: Cereblon binding affinity; settings: CELMoD affinity for Cereblon compared with Pomalidomide/IMiD
[3] = target: T2, Cereblon-DDB1 (Homo sapiens, UniProt Q96SW2); test: hydrogen-deuterium exchange mass spectrometry (HDX-MS) of Cereblon-DDB1 peptides; design: made in house; settings: compared with unliganded DDB1-Cereblon; result in words
Description: For peptide identification, differential HDX-MS experiments were conducted as previously described with a few modifications (Chalmers, M. J., et al. (2006). Probing protein ligand interactions by automated hydrogen/deuterium exchange mass spectrometry. Analytical Chemistry, 78(4), 1005-1014). Peptides were identified using tandem MS (MS/MS) with an Orbitrap mass spectrometer (Q Exactive, ThermoFisher). Product ion spectra were acquired in data-dependent mode with the top five most abundant ions selected for the product ion analysis per scan event. The MS/MS data files were submitted to Mascot (Matrix Science) for peptide identification. […] The MASCOT search was repeated against a decoy (reverse) sequence and ambiguous identifications were ruled out and not included in the HDX peptide set. […]
Mass spectrometric data were acquired using an Orbitrap mass spectrometer (Exactive, ThermoFisher). […] The intensity weighted mean m/z centroid value of each peptide envelope was calculated and subsequently converted into a percentage of deuterium incorporation. […] Statistical significance for the differential HDX data is determined by an unpaired t-test for each time point, a procedure that is integrated into the HDX Workbench software (Pascal, B. D., et al. (2012). HDX workbench: software for the analysis of H/D exchange MS data. Journal of the American Society for Mass Spectrometry, 23(9), 1512-1521.). […]

[4] = target: T2, Cereblon-DDB1; test: cryo-EM population analysis of open/closed Cereblon conformers with saturating IMiD/CELMoD; design: human cereblon (amino acids 5-442); ZZ-domain-6×His-thrombin site (cleaved yes); made in house; host or cells: SF9 insect cells; settings: wild-type Cereblon-DDB1, saturating amount of drug, cryo-EM single-particle analysis
Description: (§1) Frozen 20 mg/mL cereblon-DDB1 complexes were thawed and diluted to 5 mg/mL with buffer containing 20 mM HEPES pH 7, 150 mM NaCl, 3 mM TCEP. Immediately prior to plunge-freezing in liquid ethane, samples are diluted 10-fold in the same buffer supplemented with 0.011% Lauryl Maltose-Neopentyl Glycol (LMNG) to limit complex dissociation. Quantifoil 300 mesh R1.2/1.3 UltrAuFoil Holey Gold Films were plasma cleaned for 7 seconds using a Solarus plasma cleaner (Gatan, Inc.) with a 75% nitrogen, 25% oxygen atmosphere at 15 W. Immediately prior to sample application, grids are further pre-treated with 4 μL solution containing 10 μM cereblon binding-deficient mutant Ikaros residues 140-196 Q146A G151N and blotted from behind with torn Whatman 1 filter paper. 4 μL dilute sample is applied, excess sample was blotted away for 4 s and vitrified by manual plunge freezing into a liquid ethane pool cooled by liquid nitrogen using a manual plunger in a 4° C. cold room >95% humidity. Samples containing IMiDs are prepared the same way, with 10× molar equivalent of drug yielding a buffer concentration 20 mM HEPES pH 7, 150 mM NaCl, 3 mM TCEP, <1% DMSO mixed 2 minutes prior to dilution and application to the grid. Similarly, Ikaros samples are prepared by incubation of 2-fold molar excess Ikaros 2 minutes prior to dilution and application to the grid. […]

[5] = target: T3, Ikaros/Cereblon/DDB1 (Homo sapiens, UniProt Q96SW2); test: cryo-EM of drug-mediated Ikaros recruitment to Cereblon-DDB1; settings: wild-type Cereblon/DDB1, FIG. 4C; result in words
T3 construct: human cereblon (amino acids 5-442); ZZ-domain-6×His-thrombin site (cleaved yes); made in house; host or cells: SF9 insect cells (CRBN-DDB1); E. coli BL21 (DE3) Star (Ikaros)
Description: as §1

[6] = P98A mutant Cereblon, saturated with drug along with Ikaros

improved affinity [2] | particles adopting CRBN^closed conformation [4] [%] | recruitment of Ikaros ZF1-2-3 to CRBN^closed [5] | SMILES | particles adopting CRBN^closed conformation with Ikaros bound [1, 6] [%] | conformation of P98A Cereblon in presence of drug (open/closed) [1, 6] | recruitment of Ikaros Zf 2-3 to P98A mutant Cereblon [1] | change in solvent accessibility (HDX differential) upon addition of drug [3]
– | – | – | N#Cc1ccc(N2CCN(Cc3ccc(COc4cccc5c4CN([C@H]4CCC(=O)NC4=O)C5=O)cc3)CC2)c(F)c1 [Compound 2, (S)-4-(4-(4-(((2-(2,6-dioxopiperidin-3-yl)-1-oxoisoindolin-4-yl)oxy)methyl)benzyl)piperazin-1-yl)-3-fluorobenzonitrile] | 25 | can overcome this mutation | sufficiently recruits Ikaros Zf 2-3 | –
approximately 20 fold | ~50 | is recruited to CRBN^closed | O=C1CC[C@H](N2Cc3c(OCc4ccc(CN5CCOCC5)cc4)cccc3C2=O)C(=O)N1 [Compound 1, (S)-3-(4-((4-(morpholinomethyl)benzyl)oxy)-1-oxoisoindolin-2-yl)piperidine-2,6-dione] | – | – | – | affected solvency for both the sensor loop and residues within the Lon domain and HB
– | – | – | Nc1cccc2c1C(=O)N(C1CCC(=O)NC1=O)C2=O (stereo not drawn) [Pomalidomide, reference compound] | – | exclusively substrate-free open conformers; also recorded: cannot close | insufficient | –
